Experimental data reported in the supplement of paper PMC8671470.

Tests used:
Details in all cases: 72 h
[1] = system: HL-60; assay: cell viability (% survival relative to DMSO control, bortezomib = 0%); higher = less cytotoxic
Summary of the method: (§1)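 Percent survival is reported as the mean of duplicate wells. Cells from 10 AML and 5 CML lines were plated in 384-well plates containing compounds at 1, 10, 100, 1000 or 10000 nM and kept for 72 h at 37 °C in 5% CO2. Readout used CellTiter-Glo luminescence, scaled so that vehicle equals 100% and a 10 µM positive control equals 0%.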

[2] = system: BV-173; assay: as above
Summary of the method: as §1

[3] = system: ML-2; assay: as above
Summary of the method: as §1

[4] = system: Mono-Mac-6; assay: as above
Summary of the method: as §1

[5] = system: THP-1; assay: as above
Summary of the method: as §1

[6] = system: KU-812; assay: as above
Summary of the method: as §1

[7] = system: SHI-1; assay: as above
Summary of the method: as §1

[8] = system: MV4-11; assay: as above
Summary of the method: as §1

[9] = system: K-562; assay: as above
Summary of the method: as §1

[10] = system: KCL-22; assay: as above
Summary of the method: as §1

[11] = system: NOMO-1; assay: as above
Summary of the method: as §1

[12] = system: HEL; assay: as above
Summary of the method: as §1

[13] = system: MOLM-13; assay: as above
Summary of the method: as §1

[14] = system: KG-1; assay: as above
Summary of the method: as §1

[15] = system: HL-60
Summary of the method: (§2)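 For the IC50, dose–response curves were fitted with a log-logistic model. The data came from fifteen myeloid leukaemia cell lines grown in RPMI 1640 at densities in the linear growth range and incubated in 384-well plates for 72 h at 37 °C under 5% CO2. Doses were five tenfold steps from 1 to 10,000 nM in duplicate, and luminescent ATP viability was normalised to vehicle and to a positive control at 10 µM before four-parameter fitting.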

[16] = system: BV-173
Summary of the method: as §2

[17] = system: ML-2
Summary of the method: as §2

[18] = system: Mono-Mac-6
Summary of the method: as §2

[19] = system: THP-1
Summary of the method: as §2

[20] = system: KU-812
Summary of the method: as §2

[21] = system: SHI-1
Summary of the method: as §2

[22] = system: MV4-11
Summary of the method: as §2

[23] = system: K-562
Summary of the method: as §2

[24] = system: KCL-22
Summary of the method: as §2

[25] = system: NOMO-1
Summary of the method: as §2

[26] = system: HEL
Summary of the method: as §2

[27] = system: MOLM-13
Summary of the method: as §2

[28] = system: LAMA-84
Summary of the method: as §2

[29] = system: KG-1
Summary of the method: as §2

[30] = system: HL-60; assay: area under dose-response curve (viability, 1 nM-10 uM) (fraction (0-1)); higher = more sensitive
Summary of the method: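 In 384-well plates, the full library was rescreened in duplicate on HL-60 cells in RPMI 1640 with 10% FBS, at 1–10,000 nM in five tenfold concentrations, for 72 h at 37 °C, 5% CO2. Each run also held DMSO or 100 nM of one of three metabolic inhibitors. Viability was measured by CellTiter-Glo and normalised to DMSO wells and to wells with proteasome inhibitor, present at 10 μM. Any area under the curve comes from four-parameter log-logistic fitting with drc and PharmacoGx.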

Nc1nc(Cl)nc2c1ncn2[C@H]1C[C@H](O)[C@@H](CO)O1 [Cladribine]
Details	area under dose-response curve, co-treatment: AZD3965 100 nM	area under dose-response curve, co-treatment: DMSO vehicle	area under dose-response curve, co-treatment: GSK2194069 100 nM	area under dose-response curve, co-treatment: pictilisib 100 nM	cell viability, 1 nM [%]	cell viability, 10 nM [%]	cell viability, 100 nM [%]	cell viability, 1000 nM [%]	cell viability, 10000 nM [%]
[1]	–	–	–	–	108	88.3	26.6	1.62	-0.177
[2]	–	–	–	–	128	4.77	-0.0212	0.000225	-0.197
[3]	–	–	–	–	117	100	85.5	7.04	2.51
[4]	–	–	–	–	113	82.5	1.25	0.0892	-0.125
[5]	–	–	–	–	102	93.7	102	24.2	26.3
[6]	–	–	–	–	112	101	53.3	16.5	5.32
[7]	–	–	–	–	87.7	88.7	13.6	0.494	-0.0158
[8]	–	–	–	–	129	81	-0.607	-0.0489	-0.0474
[9]	–	–	–	–	110	97.5	79.8	28.8	20.5
[10]	–	–	–	–	114	111	68.9	15.6	7.11
[11]	–	–	–	–	111	101	21.5	1.41	0.34
[12]	–	–	–	–	105	99.2	3.91	0.404	0.141
[13]	–	–	–	–	100	87.2	4.48	0.607	-0.282
[14]	–	–	–	–	101	105	102	9.9	5.04
[30]	0.45	0.394	0.459	0.515	–	–	–	–	–

Details	IC50 (cell viability) [µM]
[15]	0.0471
[16]	0.00438
[17]	0.238
[18]	0.0212
[19]	0.358
[20]	0.0989
[21]	0.0439
[22]	0.0202
[23]	0.219
[24]	0.142
[25]	0.0529
[26]	0.0335
[27]	0.0253
[28]	0.0992
[29]	0.384

CCCCCCCCCCC[C@@H](C[C@@H]1OC(=O)[C@H]1CCCCCC)OC(=O)[C@H](CC(C)C)NC=O [Orlistat]
Details	area under dose-response curve, co-treatment: AZD3965 100 nM	area under dose-response curve, co-treatment: DMSO vehicle	area under dose-response curve, co-treatment: GSK2194069 100 nM	area under dose-response curve, co-treatment: pictilisib 100 nM	cell viability, 1 nM [%]	cell viability, 10 nM [%]	cell viability, 100 nM [%]	cell viability, 1000 nM [%]	cell viability, 10000 nM [%]
[1]	–	–	–	–	122	105	108	106	98.7
[2]	–	–	–	–	86.3	92	79.9	87.5	82
[3]	–	–	–	–	93.6	101	93.6	88.6	86
[4]	–	–	–	–	114	91.1	97.7	103	87.7
[5]	–	–	–	–	97.5	99	85.2	95	94.6
[6]	–	–	–	–	98.3	92.1	96.4	98.5	89.6
[7]	–	–	–	–	101	102	106	108	102
[8]	–	–	–	–	107	97.2	71.6	109	79.8
[9]	–	–	–	–	118	85.1	88.2	103	103
[10]	–	–	–	–	105	87.9	90.2	97	86.9
[11]	–	–	–	–	101	95	96.6	106	96.5
[12]	–	–	–	–	102	107	95.3	101	90.8
[13]	–	–	–	–	140	104	87.9	65.3	95.2
[14]	–	–	–	–	96.2	99.6	96.4	100	53.3
[30]	< 0.0301	< 0.0301	0.0449	< 0.0301	–	–	–	–	–

Details	IC50 (cell viability) [µM]
[15]	> 10
[16]	> 10
[17]	> 10
[18]	> 10
[19]	> 10
[20]	> 10
[21]	> 10
[22]	> 10
[23]	> 10
[24]	> 10
[25]	> 10
[26]	> 10
[27]	> 10
[28]	> 10
[29]	> 10

O=C(O)C[C@@]1(O)C[C@@H](CCCCCCc2ccc(Cl)cc2Cl)OC1=O
Details	area under dose-response curve, co-treatment: AZD3965 100 nM	area under dose-response curve, co-treatment: DMSO vehicle	area under dose-response curve, co-treatment: GSK2194069 100 nM	area under dose-response curve, co-treatment: pictilisib 100 nM	cell viability, 1 nM [%]	cell viability, 10 nM [%]	cell viability, 100 nM [%]	cell viability, 1000 nM [%]	cell viability, 10000 nM [%]
[1]	–	–	–	–	97.1	123	100	89.3	99.8
[2]	–	–	–	–	102	101	97.8	96.3	96.4
[3]	–	–	–	–	103	116	106	105	106
[4]	–	–	–	–	96.3	111	102	92.8	96.3
[5]	–	–	–	–	103	97	103	99.7	90.3
[6]	–	–	–	–	92.2	99.9	96	98.7	92.4
[7]	–	–	–	–	99.7	124	98.4	102	96.4
[8]	–	–	–	–	95.3	86.1	90.5	102	98.4
[9]	–	–	–	–	103	93.6	105	102	96.8
[10]	–	–	–	–	97.1	107	88.4	97.5	112
[11]	–	–	–	–	101	103	97.4	98.8	99.5
[12]	–	–	–	–	110	118	99.2	89.2	95.6
[13]	–	–	–	–	102	103	110	103	110
[14]	–	–	–	–	100	110	99.4	112	97.9
[30]	< 0.0301	< 0.0301	< 0.0301	< 0.0301	–	–	–	–	–

Details	IC50 (cell viability) [µM]
[15]	> 10
[16]	> 10
[17]	> 10
[18]	> 10
[19]	> 10
[20]	> 10
[21]	> 10
[22]	> 10
[23]	> 10
[24]	> 10
[25]	> 10
[26]	> 10
[27]	> 10
[28]	> 10
[29]	> 10
